Measurements as given in patent US11160790B2, “Method of inhibiting Cryptococcus growth using eltrombopag” (priority 2019, dated 2021).
In brackets after ≈: the same amount, converted by molar mass.

Legend:
C. neoformans H99 [1] = experiment: Checkerboard titration assay; format: cell-based, Cryptococcus neoformans; conditions: 30° C., 48 hours
Protocol: (§1) Amphotericin B plus 5-flucytosine or fluconazole are combinations often used to treat cryptococcal meningitis. To investigate the synergy between eltrombopag and existing antifungal drugs or other drugs, a checkerboard titration assay was performed on Cryptococcus. Briefly, C. neoformans […] and C. deuterogattii […] cells were cultured overnight at 30° C. and then washed twice with double-distilled water. The cells were diluted to 10^3 cfu/mL with RPMI 1640 medium, and 100 μL of the cell suspension was added to each well of a 96-well polystyrene plate. […] After incubation at 30° C. for 48 hours, the growth of cells under different treatments was assessed by measuring the light absorbance at 600 nm (OD600). This assay allows the determination of fractional inhibitory concentration index (FICI): (MICcombined of drug A/MICalone of drug A)+(MICcombined of drug B/MICalone of drug B). After the checkerboard titration assay, the cells (3 μL) in the 96-well plate were transferred to drug-free YPD agar plates. After incubation at 30° C. for 48 hours, the agar plates were photographed and assessed for cell viability.

[2] = test system: multiple C. neoformans/C. gattii; experiment: Microdilution assay, summary for Cryptococcus species; format: cell-based
Protocol: Cryptococcus and Candida species were cultured in yeast extract-peptone-dextrose (YPD) medium (containing 1% yeast extract, 2% peptone, 2% glucose, and optionally 2% agar for preparation of an agar plate). Aspergillus, Fusarium, and Trichophyton species were cultured on potato dextrose agar (PDA) plate (containing 2% potato infusion, […], and 1.5% agar). A microdilution assay was performed to determine minimum inhibitory concentration (MIC), minimum fungicidal concentration (MFC), and fractional inhibitory concentration (FIC) index (FICI) using RPMI 1640 medium buffered with MOPS. […]
To investigate the inhibitory effects of eltrombopag on the growth of fungi, microdilution assays (based on the CLSI standards M27-A3 and M38-A2) were performed with multiple pathogenic yeasts and filamentous fungi including Cryptococcus, Candida, Aspergillus, Fusarium, and Trichophyton (TABLE 1). […] Thereafter, 3 μL of the fungal culture from each well of the 96-well plates was spotted onto eltrombopag-free YPD (for yeasts) or PDA (for filamentous fungi) agar plates, which were then incubated at 35° C. for 48 hours to examine colony formation Minimum fungicidal concentration (MFC) was determined to be the lowest drug concentration at which no colonies formed. […]

C. deuterogattii R265 = experiment: Checkerboard titration assay; format: cell-based, Cryptococcus deuterogattii; conditions: 30° C., 48 hours
Protocol: as §1

C. neoformans H99 [3] = experiment: Disk diffusion susceptibility assay; format: cell-based, Cryptococcus neoformans; conditions: 10 μg per disk; 25° C., 30° C. or 37° C., 48 hours
Protocol: A disk diffusion susceptibility assay was performed to further investigate the fungistatic activity of eltrombopag at different temperatures. Briefly, C. neoformans […] or C. deuterogattii 8265 was cultured overnight at 30° C., and 100 μL of the culture (at an OD600 of about 0.1) was spread on RPMI 1640 agar plates. Paper disks (with a diameter of 6 mm) were then placed on these agar plates, and either 10 μg eltrombopag (dissolved in 5 μL DMSO) or 5 μL DMSO (control) was added to each disk. The agar plates were incubated at 25° C., 30° C., or 37° C. for 48 hours and photographed.

[4] = test system: Candida tropicalis MYA3404; experiment: Microdilution assay (CLSI M27-A3/M38-A2), MIC and MFC; format: cell-based; conditions: 35° C.
Protocol: (§2) Cryptococcus and Candida species were cultured in yeast extract-peptone-dextrose (YPD) medium (containing 1% yeast extract, 2% peptone, 2% glucose, and optionally 2% agar for preparation of an agar plate). Aspergillus, Fusarium, and Trichophyton species were cultured on potato dextrose agar (PDA) plate (containing 2% potato infusion, […], and 1.5% agar). A microdilution assay was performed to determine minimum inhibitory concentration (MIC), minimum fungicidal concentration (MFC), and fractional inhibitory concentration (FIC) index (FICI) using RPMI 1640 medium buffered with MOPS. Minimal medium (containing 15 mM glucose, 10 mM magnesium sulfate, 29.4 mM potassium dihydrogen phosphate, 13 mM glycine, and 3 μM thiamine hydrochloride; pH 5.5) was used for capsule size assay and melanization assay.
(§3) To investigate the inhibitory effects of eltrombopag on the growth of fungi, microdilution assays (based on the CLSI standards M27-A3 and M38-A2) were performed with multiple pathogenic yeasts and filamentous fungi including Cryptococcus, Candida, Aspergillus, Fusarium, and Trichophyton (TABLE 1). Briefly, yeast or filamentous fungi strains at a final concentration of about 10^3 cfu/mL were inoculated in RPMI 1640 medium containing two-fold serially diluted eltrombopag (started at 64 mg/L). In addition, fungal cultures without eltrombopag were used as positive controls, while media without fungal cells and eltrombopag were used as negative controls. The 96-well plates loaded with the aforementioned cultures were incubated at 35° C. for 48 hours, and the growth of cells in each well was examined to determine the minimum inhibitory concentration (MIC) of eltrombopag, which was the lowest drug concentration at which there was no visible cell growth. Thereafter, 3 μL of the fungal culture from each well of the 96-well plates was spotted onto eltrombopag-free YPD (for yeasts) or PDA (for filamentous fungi) agar plates, which were then incubated at 35° C. for 48 hours to examine colony formation Minimum fungicidal concentration (MFC) was determined to be the lowest drug concentration at which no colonies formed. The assays were performed in triplicate.

[5] = test system: Cryptococcus gattii WM276; experiment: as above; format: cell-based; conditions: 35° C.
Protocol: as §2, §3

Candida albicans SC5314 = experiment: as above; format: cell-based; conditions: 35° C.
Protocol: as §2, §3

Candida glabrata CBS138 = experiment: as above; format: cell-based; conditions: Nakaseomyces glabratus, 35° C.
Protocol: as §2, §3

[6] = test system: Fusarium solani Fungus III-6; experiment: as above; format: cell-based
Protocol: as §2, §3

[7] = test system: Trichophyton rubrum MYA4438; experiment: as above; format: cell-based
Protocol: as §2, §3

[8] = test system: Cryptococcus deuterogattii R272; experiment: as above; format: cell-based; conditions: 35° C.
Protocol: as §2, §3

[9] = test system: Cryptococcus neoformans H99; experiment: as above; format: cell-based; conditions: 35° C.
Protocol: as §2, §3

[10] = test system: Candida parapsilosis ATCC22019; experiment: as above; format: cell-based; conditions: Lodderomyces parapsilosis, 35° C.
Protocol: as §2, §3

Candida krusei ATCC6258 = experiment: as above; format: cell-based; conditions: Pichia kudriavzevii, 35° C.
Protocol: as §2, §3

[11] = test system: Cryptococcus neoformans T1; experiment: as above; format: cell-based
Protocol: as §2, §3

[12] = test system: Candida lusitaniae ATCC42720; experiment: as above; format: cell-based; conditions: Clavispora lusitaniae, 35° C.
Protocol: as §2, §3

[13] = test system: Aspergillus fumigatus AF293; experiment: as above; format: cell-based
Protocol: as §2, §3

`CC1=NN(c2ccc(C)c(C)c2)C(=O)/C1=N\Nc1cccc(-c2cccc(C(=O)O)c2)c1O` [eltrombopag] was tested, and the MICalone (C. neoformans H99 [1]) was 0.25 mg/L, the “MICcombined of ETP” value (C. neoformans H99 [1]; ETP in combination with AMB) was 0.03 mg/L and the “MICcombined of ETP” value (C. neoformans H99 [1]; ETP in combination with CsA) was 0.25 mg/L. The “MICcombined of ETP” value (C. neoformans H99 [1]; ETP in combination with FK506) was 0.015 mg/L, the “MICcombined of ETP” value (C. neoformans H99 [1]; ETP in combination with FLC) was 0.03 mg/L and the MIC ([2]; 35° C.) was ~0.125 µg/mL (≈ 0.283 µM). The MFCs ([2]; Cryptococcus species) was “higher than 64 mg/L”, the MICalone (C. deuterogattii R265) was 0.5 mg/L and the “MICcombined of ETP” value (C. deuterogattii R265; ETP in combination with AMB) was 0.03 mg/L. For the same compound, the “MICcombined of ETP” value (C. deuterogattii R265; ETP in combination with CsA) was 1 mg/L, the “MICcombined of ETP” value (C. deuterogattii R265; ETP in combination with FK506) was 0.015 mg/L and the “MICcombined of ETP” value (C. deuterogattii R265; ETP in combination with FLC) was 0.03 mg/L. The inhibition zones (C. neoformans H99 [3]) was “significantly larger inhibition zones were observed at 37 °C”, the MIC ([4]; 48 hours) was 64 µg/mL (≈ 145 µM) and the MFC ([4]; 48 hours on drug-free agar) was > 64 µg/mL. For the same compound, the MIC ([5]; 48 hours) was 0.125 µg/mL (≈ 0.283 µM), the MFC ([5]; 48 hours on drug-free agar) was > 64 µg/mL and the MIC (Candida albicans SC5314; 48 hours) was > 64 µg/mL. The MFC (Candida albicans SC5314; 48 hours on drug-free agar) was > 64 µg/mL, the MIC (Candida glabrata CBS138; CBS138, 48 h, 48 hours) was ~0.25 µg/mL (≈ 0.565 µM) and the MFC (Candida glabrata CBS138; CBS138, 48 hours on drug-free agar) was > 64 µg/mL. For the same compound, the antifungal activity [6] was “no antifungal activity”, the MIC ([6]; Fusarium solani, 35° C., 48 hours) was > 64 µg/mL and the MFC ([6]; Fusarium solani, 35° C., 48 hours on drug-free agar) was > 64 µg/mL. The MFC ([7]; MYA4438, 35° C., 48 hours on drug-free agar) was > 64 µg/mL, the MIC ([7]; MYA4438, 48 h, 35° C., 48 hours) was ~0.5 µg/mL (≈ 1.13 µM) and the MIC ([8]; 48 hours) was 0.125 µg/mL (≈ 0.283 µM). The MFC ([8]; 48 hours on drug-free agar) was > 64 µg/mL, the MIC ([9]; 48 hours) was 0.125 µg/mL (≈ 0.283 µM) and the MFC ([9]; 48 hours on drug-free agar) was > 64 µg/mL. The MIC ([10]; 48 hours) was 64 µg/mL (≈ 145 µM), the MFC ([10]; 48 hours on drug-free agar) was > 64 µg/mL and the MIC (Candida krusei ATCC6258; 48 hours) was 64 µg/mL (≈ 145 µM). The MFC (Candida krusei ATCC6258; 48 hours on drug-free agar) was > 64 µg/mL, the MFC ([11]; T1, 35° C., 48 hours on drug-free agar) was > 64 µg/mL and the MIC ([11]; T1, 48 h, 35° C., 48 hours, azole-resistant strain) was 0.125 µg/mL (≈ 0.283 µM). For the same compound, the MIC ([12]; 48 hours) was 64 µg/mL (≈ 145 µM), the MFC ([12]; 48 hours on drug-free agar) was > 64 µg/mL and the antifungal activity [13] was “no antifungal activity”. For the same compound, the MIC ([13]; Aspergillus fumigatus, AF293, 35° C., 48 hours) was > 64 µg/mL and the MFC ([13]; Aspergillus fumigatus, AF293, 35° C., 48 hours on drug-free agar) was > 64 µg/mL.
